# Earlier results in patent US11191273B2, “Methods of making pyranopyrans such as pyranopyran nitrile and methods of using pyranopyrans such as pyranopyran nitrile” (The United States of America, as Represented by the …, priority 2018, dated 2021).
# System: cork oak (Quercus suber) cuttings
# Conditions: literature; cited from earlier work
smiles,measurement,value
"C[C@H](O)[C@H]1C=C[C@@H]2OC(=O)C=C[C@@H]2O1 [Diplopyrone, 6-[(1S)-1-hydroxyethyl]-2,4a(S),6(R),8a(S)-tetrahydropyrano-[3,2-b]-pyran-2-one]",phytotoxic effect,causes necrosis and wilting
